Experimental data as given in patent US6900239B2, “Tumor chemopotentiation using isocoumarin derivatives” (ILWZ ILEX Products, Inc., priority 2000, dated 2005).

What was measured:
[1] = system: Human umbilical vein endothelial cells (HUVEC); test: HUVEC colony survival with increasing doses of X-rays; assay type: cell-based; details: highest X-ray dose
Description: In another study of HUVEC radiation sensitivity, cells were treated with NM-3 (100 ng/ml) 1 hr prior to exposure of the cells to increasing doses of gamma irradiation (X-rays). The numbers of HUVEC colonies that formed following the different treatments were recorded and normalized to the number of colonies formed under control conditions (see FIG. 2). Increasing doses of X-rays in the absence of NM-3 decreased HUvEC colony survival to a minimal value of 10% survival at the highest dose tested. In the presence of NM-3, HUVEC colony survival decreased to 0.01% of the initial living cells at the highest X-ray dose.

PC6 = test: Cell growth (WST-1) in the presence of NM-3; assay type: cell-based; details: Homo sapiens, PC-6, 72 h; 3 days culture with NM-3
Ehrlich carcinoma = test: Ehrlich solid tumor growth; assay type: in vivo, ICR mice; details: for Inhibition (%): days 1~14; for Mean Tumor Weight (mg ± S.D.): days 1~14, measured day 15
Description: To determine the antitumor effect of NM-3 on growth of a solid tumor in vivo, 4×10^6 Ehrlich carcinoma cells per mouse were subcutaneously transplanted into ICR mice (female, 6 weeks old) in the inguinal area. NM-3 was continuously administered via the oral route for 14 days. Tumor weights were then measured on day 15 (Table 2). […] Thus, NM-3 treatment is associated with a significant reduction in the growth of solid tumors.

MKN28 = test: Cell growth (WST-1) in the presence of NM-3; assay type: cell-based; details: Homo sapiens, MKN-28, 72 h; 3 days culture; value somewhat low due to the influence of DMSO
[2] = system: MM1.S human multiple myeloma cells; test: Apoptosis by annexin V-FITC and PI staining; assay type: cell-based
Description: Apoptosis was determined by staining cells with annexin V-FITC and propidium iodide (PI). Cells were treated with DEX in the presence or absence of NM-3. NM-3 was added 2 hours before the addition of DEX. After 24 hours of DEX exposure, cells were washed twice with cold PBS, resuspended in binding buffer (10 mM HEPES/NaOH (pH 7.4), 140 mM NaCl, 2.5 mM CaCl2), and then stained with annexin V-FITC (Clontech Laboratories) and PI (Boehringer-Manheim). Apoptosis was analyzed by using a flow cytometer (EPICS XL-MCL, Coulter Corp). The cultured cells were also subjected to cell cycle analysis. Briefly, cells were washed twice with PBS and fixed with 70% ethanol. Cells were then washed with 0.5 ml PBS and 1.0 ml phosphate-citric acid buffer (0.2 M Na2HPO4 and 0.1 M citric acid (pH 7.8)), treated with 200 μg/ml RNase for 15 min at 37° C., and stained with 50 μg/ml PI for 30 min at room temperature in the dark. Cells were filtered through 35-μm diameter mesh to remove clumps. Nuclear staining was analyzed by a flow cytometer. Cells with fractional DNA content located on DNA frequency histograms to the left of the G1 peak (sub-G1 cells) were identified as apoptotic cells.

Seg-1 tumors = test: NM-3 and ionizing radiation, tumor growth; assay type: in vivo, C57BL/6 nude mice
Description: (§1) The effects of NM-3 and IR on tumor growth were assessed in Lewis Lung Carcinoma (LLC), Seg-1, and SQ-20B tumors implanted in C57BL/6 nude mice.
Seg-1 tumors in the control group and the NM-3-treated group grew to 6.30±0.42 and 6.74±0.62 times original volume by day 15 at which time the animals were sacrificed due to tumor burden. Tumors in the IR (4 doses of 5 Gy) group initially regressed (0.64±0.03 times original volume, day 7) and then regrew (1.83±0.11, day 15). […] (FIG. 8B).

[3] = system: MDAMB-435 human breast tumor xenografts; test: MDAMB-435 orthotopic model, NM-3 with 5-Fluorouracil; assay type: in vivo, female NCRNU nude mice; details: NM-3 100 mg/kg/day i.p. alone
Description: In order to evaluate the antitumor activity of NM-3 in combination with 5-Fluorouracil (5-FU) vs. MDAMB-435 human breast tumor xenografts, female NCRNU nude mice were implanted with MDAMB-435 cells into the subaxillary mammary fat pad. When the tumors were between 50 and 80 mm^3, NM-3 was administered via intraperitoneal (i.p.) injection daily at 10 and 100 mg/kg; 5-FU was administered via i.p. injection on days 0 and 14, at 10 mg/kg. Mice were weighed twice weekly, and tumor measurements were taken by calipers twice weekly. Mice were euthenized at the end of the treatment period. Upon termination, the mice were weighed, sacrificed and their tumors were excised.
Initial studies were conducted with 5-FU to determine the optimal dose of this agent when administered in combination with NM-3.

LLC tumor = test: LLC tumors, second experiment, complete cures; assay type: in vivo; details: NM-3 25 μg/kg daily over the first four days + 20 Gy X-irradiation on days 2 and 4
Description: In a second similar experiment, X-ray treatment and X-ray treatment combined with NM-3 treatment were again compared for their relative abilities to inhibit LLC tumor growth. However, the treatment period was extended to determine whether either treatment regimen was able to initiate complete tumor cures. Animals were injected with […] initially and starting tumor volumes were approximately 500 mm^3. Tumors were irradiated on days 2 and 4 with 20 Gy X-irradiation. NM-3 was administered at 25 μg/kg daily over the first four days. The tumors of both groups increased slightly in size following initiation of treatment and then began to decrease after several days. Tumors in the X-ray only group began to increase steadily in size after the 10th day of continuous treatment. In contrast, tumors in the NM-3+X-ray group continued to decrease in size following the initial growth phase. Ultimately, 9 of 10 animals receiving NM-3+X-ray treatment experienced a complete cure while only 3 of 10 animals were cured by the X-ray treatment alone.

SQ-20B tumors = test: NM-3 and ionizing radiation, tumor growth; assay type: in vivo, C57BL/6 nude mice
Description: as §1
In experiments conducted using SQ-20B tumors, control tumors grew to 5.2±0.94 times original volume by day 20. […] Animals in these two groups were subsequently sacrificed because of tumor burden. […] By day 38, IR treated tumors regrew to twice original volume.

[4] = NM-3 combined with IR (4 doses of 5 Gy)

## COc1cc(O)c2c(=O)oc(C(C)C(=O)O)cc2c1 (stereo not drawn) [NM-3, 2-(8-hydroxy-6-methoxy-1-oxo-1H-2-benzopyran-3-yl) propionic acid]
[1]; NM-3 100 ng/ml 1 hr prior to irradiation
  HUVEC colony survival: 0.01%
[1]; NM-3 100 ng/ml
  Increase of sensitivity to X-ray induced lethality: approximately 1000 fold
PC6
  IC50: > 500 µg/mL
Ehrlich carcinoma; 0.63 mg/kg p.o.
  Inhibition (%): 33.1%
Ehrlich carcinoma; 1.25 mg/kg p.o.
  Inhibition (%): 59.5%
  Mean Tumor Weight (mg ± S.D.): 497.7 ± 265.5 mg
Ehrlich carcinoma; 2.5 mg/kg p.o.
  Inhibition (%): 57.7%
  Mean Tumor Weight (mg ± S.D.): 519.5 ± 319.3 mg
Ehrlich carcinoma; 5 mg/kg p.o.
  Inhibition (%): 52.0%
  Mean Tumor Weight (mg ± S.D.): 589.7 ± 338.3 mg
Ehrlich carcinoma; 1.25 to 5 mg/kg p.o.
  Tumor size versus control: significantly reduced in size
MKN28
  IC50: 175 µg/mL
[2]; NM-3 alone, 50-200 μg/ml
  Population of cells positive for annexin V and PI (apoptotic cells): did not change the population of cells positive for annexin V and PI
[2]; pretreatment with NM-3, DEX 1 μM, 24 hours
  DEX-induced increase of apoptotic cells: further enhanced
Seg-1 tumors; NM-3 alone, day 15
  Tumor volume: 6.74±0.62 times original volume
Seg-1 tumors; [4]
  Growth delay compared to IR alone group: 3 days
  Growth delay compared to the control group: 14 days
Seg-1 tumors; NM-3 combined with IR (4 doses of 5 Gy), days 15, 17, 19, 21 and 23
  Mean tumor volume compared with IR alone: significantly reduced mean tumor volume
[3]
  % Tumor Growth Inhibition: 24.1%
LLC tumor
  Animals with complete cure: 9 of 10
SQ-20B tumors; NM-3 alone, day 20
  Tumor volume: 4.3±1.03 times original volume
SQ-20B tumors; NM-3 and IR (65 Gy), by day 6
  Tumor size: doubled in size
SQ-20B tumors; NM-3 and IR (65 Gy), by day 38, p=0.006 vs IR alone
  Tumor regrowth: failed to reach original volume
SQ-20B tumors; NM-3 and IR (65 Gy), day 23
  Tumor volume, % of original volume: 77%
